The results in this text go back to patent publication US20140377324A1, “Pharmaceutical Composition Comprising miRNA-100 And Its Use In The Modulation of Blood Vessel Growth and Endothelial Inflammation” (Universitatsklinikum Freiburg, priority 2009, published 2014).

“Also recorded” adds a separate entry of the source. {Chol} = cholesterol

Data set [1] has as its system miR-100. The data set is described as follows: miR-100 expression in endothelial cells after cytokine, inhibitor or statin exposure (stem loop Taqman PCR). It is filed as cell-based, human. The note with it: for miR-100 expression: endothelial cells exposed to cytokine, TNF-α 10 ng/ml for different time points (FIG. 16A). From the text: (§1) MicoRNA expression was validated by quantitative stem-loop PCR technology (TaqMan MicroRNA Assays, Applied Biosystems, Foster City, Calif.). The use of target-specific reverse transcription primers and TaqMan hybridization probes allows the specific detection of mature microRNAs. MicroRNA expression was normalized to the expression of the small RNAs rnu19 and rnu48.
To search for possible inducers of miR-100 downregulation in endothelial cells, several pro-angiogenic or pro-arteriogenic cytokines were screened for effects on miR-100 expression.
FIG. 16 [A]: Human endothelial cells were stimulated 10 ng/ml TNF-α for different time points. RNA was isolated and quantified using Taqman based Stem loop PCR.
FIG. 16 [B]: The NF-kappaB inhibitor PS1145 (10 μM) was added to TNF-α stimulated (10 ng/ml) human endothelial cells and the miR-100 expression level, compared to controls without PS1145, were measured using Stem loop Taqman PCR.
Human endothelial cells were stimulated with 1 μM Simvastatin for 48 h.
Background: Real-time PCR tracks product formation cycle by cycle.

The subject of data set [2] is murine hindlimb ischemia model. The data set is described as follows: murine hindlimb ischemia model, perfusion restoration and capillary density. It is filed as in vivo, C57/BI6J mice. The protocol:
(§2) The murine hindlimb ischemia model conforms to the Guide for the Care and Use of Laboratory Animals published by the U.S. National Institutes of Health and was performed after securing appropriate institutional approval. Unilateral femoral artery occlusion was performed in C57/BI6J mice (Charles River Lab., Sulzfeld, Germany) by double ligation of the superficial femoral artery proximal to the deep femoral artery and the distal femoral artery just above the knee joint. A sham operation without arterial occlusion was performed on the contralateral leg. For molecular biology, histology and in situ hybridization, tissue was carefully dissected and snap-frozen in liquid nitrogen until further analysis. For dissection of isolated collateral arteries, the hindlimb vasculature was […] with liquid latex, to allow the identification and isolation of individual arterial vessels.
(§3) To assess whether inhibition of miR-100 can be be used to stimulate revascularization in vivo, mice were treated with a specific antagomir against miR-100 after induction of unilateral hindlimb ischemia.
In addition, two separate groups of mice were treated with daily injections of the mTOR-inhibitor rapamycin or solvent to investigate the timecourse of hindlimb perfusion restoration under conditions of endogenous miR-100 downregulation, but impaired signalling of its target gene mTOR.

Data set [3] in a line: tissue distribution of fluorescence-labeled antagomir. It is filed as in vivo. The following applies: mice.
Data set [4] concerns miR-100. Nature of the data set: miR-100 expression in mouse tissues after antagomir treatment. It is filed as in vivo. The following applies: mice, three doses of antagomir; FIG. 8. The protocol:
as §2, §3

Data set [5] deals with endothelial cells. Nature of the data set: flow cytometric quantification of Annexin V-staining (apoptosis). The data set is classed as cell-based, human. The following applies: compared to irrelevant control sequence, FIG. 3. From the text:
(§4) To assess whether the observed differences were secondary to effects on cellular viability, endothelial cell apoptosis and proliferation following miR-100 modulation was checked. […] DNA-synthesis rate was further analyzed by measuring BrdU-Incorporation, which correlates well with cellular proliferation.
For orientation: In flow cytometry, cells or beads pass a laser one at a time.

Data set [6] deals with endothelial cells. Nature of the data set: planar matrigel assay, endothelial network formation. It is filed as cell-based, human.
Data set [7] relates to miR-100. The data set is described as follows: miR-100 level by quantitative stem-loop RT-PCR after pre-miR/anti-miR transfection. The data set is classed as cell-based, human. The note with it: 24 h following transfection; vs irrelevant-sequence controls; FIG. 2.
From the text: To verify the expression of miR-100 in pure cell populations of the vascular wall, stem-loop RT-PCR was used for total RNA-isolates from cultured human endothelial cells (HUVECs) and human aortic vascular smooth muscle cells.
as §1
miR-100 was strongly expressed in both cell types. To investigate a potential role of miR-100 for angiogenesis, miR-100 was overexpressed and silenced in these cell types by transfecting specific miR-100 precursors (pre-miRs) or antisense-molecules (anti-miRs), respectively. […] Pre- and anti-miRs with an irrelevant nucleotide sequence served as negative controls. There was no significant difference in cellular viability following transfection with the different compounds.
For transfection with pre-miR microRNA precursor molecules or anti-miRmiRNA inhibitors (all Ambion), cells were cultured to 70% confluence and transfected with 8nM pre-miR-100 or anti-miR-100 oligonucleotides using Lipofectamin RNAiMax (invitrogen) according to the manufacturers instructions. […]

The next data set concerns HUVECs / human PBMCs. The data set is described as follows: Leukocyte-HUVEC interaction under flow conditions (flow chamber). The following applies: TNF-alpha 30 ng/ml for 24 h, flow 1 dyn/cm^2; FIG. 15. It is filed as cell-based. The protocol:
HUVECs were grown to confluence, transfected with either anti-miR-100 or pre-Mir-100 oligonucelotides or scrambled controls and stimulated with TNF-alpha 30 ng/ml for 24 h. Human PBMCs (HPBMCs) were obtained from buffy coats of healthy donors by Ficoll-Hypaque density gradient centrifugation. The flow chamber was assembled and placed onto an inverted microscope stage, and freshly isolated HPBMCs (1×10^6/ml) were perfused across the endothelial monolayers. In all experiments, leukocyte interactions were determined over 105 min at 1 dyn/cm^2. Cells interacting on the surface of the endothelium were visualized and recorded using phase-contrast microscopy.
To test if this change in expression results in a functional difference in leukocyte rolling and adhesion to the endothelial surface, the attachment of isolated peripheral blood mononuclear cells (PBMC) to transfected endothelial cells was investigated under physiologic flow conditions in a flow chamber apparatus.
A physiological venous blood flow (1 dynes/cm^2) was induced by a flow chamber apparatus and the number of rolling or adherent peripheral blood mononuclear cells (PBMCs) was counted.

Data set [8] deals with endothelial cells. The data set is described as follows: three-dimensional spheroid culture assay, endothelial sprouting. The data set is classed as cell-based, human.
For data set [9], the system named is endothelial cells. The data set is described as follows: BrdU-Incorporation (proliferation), endothelial cells. The data set is classed as cell-based, human. The note with it: FIG. 3.
From the text: as §4

In the next data set the test system is mTOR. Nature of the data set: mTOR expression in endothelial cells after miR-100 modulation. The data set is classed as cell-based, human. The note with it: FIG. 5. The procedure:
The binding site of miR-100 in the 3′-UTR of mTOR is shown in (FIG. 6.) In FIG. 6 the sequence designated hsa-miR-100 corresponds to SEQ ID NO:1 and the sequence having the designation mTOR 3′UTR corresponds to SEQ ID NO:7.
For transfection with pre-miR microRNA precursor molecules or anti-miRmiRNA inhibitors (all Ambion), cells were cultured to 70% confluence and transfected with 8nM pre-miR-100 or anti-miR-100 oligonucleotides using Lipofectamin RNAiMax (invitrogen) according to the manufacturers instructions. For transfection of HEK293 cells with mTOR plasmids, 2 μg DNA per 3×10E5 cells was transfected with Fugene 6 transfection reagent (Roche). For double transfection of plasmids with miRNA-precursors and inhibitors, pre- and anti-miRs were added to the plasmid/Fugene transfection mix in the same final concentrations as stated above. mTOR (Acc. NM004958) full length (SKU SC124066) and ORF-constructs (SKU RC220457) were obtained from the Origene collection (Origene, Rockville, Md.).

Turning to `O=C(Nc1cc(Cl)cc2c1[nH]c1cnccc12)c1cccnc1` [PS1145, reference compound], the “TNF-alpha effect on miR-100 expression” value in the data set on miR-100 [1] (PS1145 10 μM, TNF-α 10 ng/ml, human endothelial cells, FIG. 16B) is recorded as “abrogated the TNF-alpha effect; also recorded: attenuates the regulatory effect of TNF-alpha on miR-100 levels”.

On to “Antag-100: antagomir 5′-cacaaguucggaucuacggguu-3′ (SEQ ID No. 3), 2-O-methyl-RNA, phosphothioat modifications, cholesterol conjugation at 3′-end (antisense CACAAGUUCGGAUCUACGGGUU; all 2'-O-methyl, 3' {Chol}, backbone not given here; phosphorothioate modifications)”, for which the flow ratio result in data set [2] (day 7 following induction of ischemia, compared to two control-antagomirs) is “higher flow ratio”. Further, in data set [2] (distal hindlimb / ischemic tissue), the capillary density entry is given as “increase in capillary density”. Besides, the “perfusion restoration (blood flow restoration)” value in data set [2] (mice, after femoral artery occlusion, day 7, vs control-antagomirs or solvent, FIG. 9) is given as “significant stimulation of perfusion restoration”. Further, in data set [3], the “tissue localisation of antagomir” value was “found in the endothelial layer of blood vessels; also recorded: most prominent accumulation was found in liver and lung sections”. For the same compound, in the data set on miR-100 [4], the “miR-100 expression in a wide selection of tissues” value was “strong and sustained suppression of miR-100 expression”.

Take “FGF2: pro-angiogenic or pro-arteriogenic cytokine”: the miR-100 expression result in the data set with miR-100 [1] was “no sustained and reproducible effect”.

As to “TGF-beta1: pro-angiogenic or pro-arteriogenic cytokine”, the miR-100 expression entry in the data set on miR-100 [1] is “no sustained and reproducible effect”.

For TNF-alpha, the miR-100 expression result is recorded as “significant downregulation of miR-100” with miR-100 [1] and “sustained downregulation of miR-100” in the data set with miR-100 [1] (listed as Tumor necrosis factor (TNF)-alpha). Also, the “dose dependency of miR-100 decrease” value in the data set on miR-100 [1] (endothelial cells, TNF-alpha concentrations tested) is listed as “trend for a more pronounced decrease of miR-100 expression with higher doses”.

Regarding VEGF, the miR-100 expression result in the data set on miR-100 [1] was “no sustained and reproducible effect”.

On to “anti-miR-100: antisense-molecule (anti-miR miRNA inhibitor, Ambion) silencing miR-100 in cultured cells; SEQ ID No:3 designated Anti miR (antisense CACAAGUUCGGAUCUACGGGUU; listed as RNA, chemistry not given here)”, for which the endothelial cell apoptosis result with endothelial cells [5] is recorded as “no significant effect”. Besides, in the data set with endothelial cells [6], the endothelial network formation entry is given as “increased endothelial network formation”. Moreover, in the data set with miR-100 [7], the “detectable miR-100 (relative miR-100 expression)” value is given as “significantly decreased miR-100 levels”. In the data set on HUVECs / human PBMCs, the “leukocyte (PBMC) adhesion to transfected endothelial cells” value is recorded as “stimulatory effect” and the “leukocyte (PBMC) rolling on transfected endothelial cells” value is recorded as “stimulatory effect”. In addition, the “endothelial sprouting (total sprout length)” value with endothelial cells [8] is reported as “longer total sprout length”. The “endothelial cell proliferation (DNA-synthesis rate)” value in the data set on endothelial cells [9] is reported as “consistent stimulatory effect”. Besides, the “mTOR-expression on both mRNA as well as protein level” value in the data set on mTOR was “significant upregulation”.
